From patent US8552049B2, “Pyrazolecarboxamide derivatives and their use as microbiocides” (Syngenta Corp Protection, LLC, priority 2010, dated 2013)

Legend:
[1] = test system: Pyrenophora teres; assay: Action against Pyrenophora teres (net blotch) on barley leaf segments; format: in vivo; details: foliar, 96 h, barley leaf segments sprayed with 0.02% active ingredient, assessed 4 days after inoculation, read-out: preventive fungicidal activity (inhibition)
Procedure: Action Against Pyrenophora teres (Net Blotch) on Barley Barley leaf segments were placed on agar in multiwell plates (24-well format) and sprayed with test solutions (0.02% active ingredient). After drying, the leaf disks were inoculated with a spore suspension of the fungus. After appropriate incubation the activity of a compound was assessed 4 days after inoculation as preventive fungicidal activity. Compounds 1.003 and 1.004 show very good activity in this test (≧80% inhibition).

[2] = test system: Erysiphe graminis f.sp. tritici; assay: Action against Erysiphe graminis f.sp. tritici (wheat powdery mildew), wheat leaf segments; format: in vivo; details: Blumeria graminis, foliar, 168 h; wheat leaf segments sprayed with 0.02% active ingredient, assessed 7 days after inoculation; read-out: preventive fungicidal activity (inhibition)
Procedure: (§1) Action Against Erysiphe graminis f.sp. tritici (Wheat Powdery Mildew) Wheat leaf segments were placed on agar in multiwell plates (24-well format) and sprayed with test solutions (0.02% active ingredient). After drying, the leaf disks were inoculated with a spore suspension of the fungus. After appropriate incubation the activity of a compound was assessed 7 days after inoculation as preventive fungicidal activity.

[3] = test system: Botrytis cinerea; assay: Action against Botrytis cinerea - fungal growth assay; format: cell-based; details: 0.002% active ingredient, PDB nutrient broth, 24° C., photometrically after 3-4 days
Procedure: (§2) Action Against Botrytis cinerea—Fungal Growth Assay Conidia of the fungus from cryogenic storage was directly mixed into nutrient broth (PDB potato dextrose broth). After placing a (DMSO) solution of the test compounds (0.002% active ingredient) into a microtiter plate (96-well format) the nutrient broth containing the fungal spores was added. The test plates were incubated at 24° C. and the inhibition of growth was measured photometrically after 3-4 days. The activity of a compound was expressed as fungal growth inhibition (0=no growth inhibition, ratings of 80% to 99% mean good to very good inhibition, 100%=complete inhibition). Compounds 1.003 and 1.004 show very good activity in this test (≧80% inhibition).

[4] = test system: Mycosphaerella arachidis; assay: Action against Mycosphaerella arachidis (early leaf spot of groundnut) - fungal growth assay; format: cell-based; details: 0.002% active ingredient, PDB nutrient broth, 24° C., photometrically after 6-7 days
Procedure: as §2, with “Against Mycosphaerella arachidis (Early Leaf Spot of Groundnut; Cercospora arachidicola [Anamorph])—Fungal” for “Against Botrytis cinerea—Fungal”, “storage were” for “storage was”, “after 6-7” for “after 3-4”

[5] = test system: Puccinia recondita; assay: Protective action against Puccinia recondita (brown rust) on wheat leaf segments; format: in vivo; details: foliar, 192 h, wheat leaf segments sprayed with 0.02% active ingredient, assessed 8 days after inoculation, read-out: preventive fungicidal activity (inhibition)
Procedure: as §1, with “Protective Action” for “Action”, “Puccinia recondita (Brown Rust) on Wheat” for “Erysiphe graminis f.sp. tritici (Wheat Powdery Mildew)”, “8” for “7”

[6] = test system: Puccinia recondita; assay: Curative action against Puccinia recondita (brown rust) on wheat leaf segments; format: in vivo; details: foliar, wheat leaf segments sprayed with 0.02% active ingredient one day after inoculation, assessed 8 days after inoculation, read-out: curative fungicidal activity (inhibition)
Procedure: Curative Action Against Puccinia recondita (Brown Rust) on Wheat Wheat leaf segments were placed on agar in multiwell plates (24-well format) and inoculated with a spore suspension of the fungus. One day after inoculation the leaf segments were sprayed with test solutions (0.02% active ingredient). After appropriate incubation the activity of a compound was assessed 8 days after inoculation as curative fungicidal activity.

[7] = test system: Septoria tritici; assay: Action against Septoria tritici - fungal growth assay; format: cell-based; details: Zymoseptoria tritici; 0.002% active ingredient, PDB nutrient broth, 24° C., photometrically after 72 hrs
Procedure: as §2, with “Against Septoria tritici—Fungal” for “Against Botrytis cinerea—Fungal”, “storage were” for “storage was”, “was determined” for “was measured”, “after 72 hrs.” for “after 3-4 days.”, “inhibition).” for “inhibition). Compounds 1.003 and 1.004 show very good activity in this test (≧80% inhibition).”

[8] = test system: Monographella nivalis; assay: Action against Monographella nivalis (snow mould) - fungal growth assay; format: cell-based; details: 0.002% active ingredient, PDB nutrient broth, 24° C., photometrically after 72 hrs
Procedure: Action Against Monographella nivalis (Anamorph: Fusarium nivale, Microdochium nivale; Snow Mould)—Fungal Growth Assay Conidia of the fungus from cryogenic storage were directly mixed into nutrient broth (PDB potato dextrose broth). After placing a DMSO-solution of the test compounds (0.002% active ingredient) into a microtiter plate (96-well format) the nutrient broth containing the fungal spores was added. The test plates were incubated at 24° C. and the inhibition of growth was measured photometrically after 72 hrs (0=no growth inhibition, ratings of 80% to 99% mean good to very good inhibition, 100%=complete inhibition).

Row | melting point [°C] | Structure (SMILES) | inhibition at 0.02 % strength [1] [%] | inhibition at 0.02 % strength [2] [%] | inhibition at 0.002 % strength [3] [%] | inhibition at 0.002 % strength [4] [%] | inhibition at 0.02 % strength [5] [%] | inhibition at 0.02 % strength [6] [%] | inhibition at 0.002 % strength [7] [%] | inhibition at 0.002 % strength [8] [%]
1 | – | CON(C(=O)c1cn(C)nc1C(F)F)C(CF)Cc1ccc(Cl)cc1Cl (stereo not drawn) [Compound 1.003, 3-difluoromethyl-1-methyl-1H-pyrazole-4-carboxylic acid [2-(2,4-dichloro-phenyl)-1-fluoromethyl-ethyl]-methoxy-amide] | ≥ 80 | ≥ 80 | ≥ 80 | ≥ 80 | ≥ 80 | ≥ 80 | ≥ 80 | ≥ 80
2 | 131 to 133 | CON(C(=O)c1cn(C)nc1C(F)(F)F)C(CF)Cc1c(Cl)cc(Cl)cc1Cl (stereo not drawn) [Compound 3.004, 1-methyl-3-trifluoromethyl-1H-pyrazole-4-carboxylic acid [1-fluoromethyl-2-(2,4,6-trichlorophenyl)-ethyl]-methoxy-amide] | – | – | – | – | – | – | – | –
3 | 117 to 118 | CON(C(=O)c1cn(C)nc1C(F)F)C(CF)Cc1c(Cl)cc(Cl)cc1Cl (stereo not drawn) [Compound 1.004, 3-difluoromethyl-1-methyl-1H-pyrazole-4-carboxylic acid [1-fluoromethyl-2-(2,4,6-trichlorophenyl)-ethyl]-methoxy-amide] | ≥ 80 | ≥ 80 | ≥ 80 | ≥ 80 | ≥ 80 | ≥ 80 | ≥ 80 | ≥ 80
